Measurements taken from patent publication US5491072A, “N-alkylacridan carboxyl derivatives useful for chemiluminescent detection” (Lumigen, Inc., priority 1993, dated 1996).

How the values were obtained:
[1] = Improvement of detection by surfactants, background luminescence of 1b solution without peroxidase; conditions: Tween 20 0.5%-1%; no added peroxidase
Source text: The improvement occurs through minimizing the background chemiluminescence in the absence of added peroxidase, possibly due to a slowing of the autoxidative decomposition of the ester. In one experiment, Tween 20 (0.5%-1%) decreased the background luminescence from a solution of 1b by a factor of 65 compared to a similar solution lacking the surfactant.

HRP [2] = biological target: T1, HRP (Armoracia rusticana, UniProt P00433); experiment: Optimization of enhancer and peroxide concentration, HRP-catalyzed oxidation of 1b; type: biochemical, horseradish; conditions: at the best level, 7×10^-16 mol HRP, 15 min, 0.1M tris pH 8.0, substrate 1b
T1 sequence (P00433 31-338 limits assumed): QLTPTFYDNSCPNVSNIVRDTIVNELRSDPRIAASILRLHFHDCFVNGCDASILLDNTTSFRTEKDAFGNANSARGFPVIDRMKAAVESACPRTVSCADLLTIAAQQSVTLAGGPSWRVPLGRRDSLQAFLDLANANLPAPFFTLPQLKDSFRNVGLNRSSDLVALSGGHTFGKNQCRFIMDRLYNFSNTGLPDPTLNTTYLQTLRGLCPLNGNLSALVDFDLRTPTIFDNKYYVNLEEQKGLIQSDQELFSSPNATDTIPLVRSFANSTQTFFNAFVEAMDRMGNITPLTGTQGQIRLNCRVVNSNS
Protocol: (§1) The experiments in the following examples were performed using a Turner Designs TD-20e luminometer fitted with neutral density filter for light attenuation. Data collection, analysis and display were software controlled. Constant temperature was maintained by means of an external circulating water bath connected to the luminometer.
Enhancement of light emission from the HRP-catalyzed oxidation of 1b was studied using p-iodophenol. A series of concentrations of p-iodophenol (0.23 mM-4.5 mM) was used in 0.1M tris buffer, pH 8.0. Signal to background ratios obtained after incubation with 7×10^-16 mol of HRP for 15 min were compared using different assay reagents 1b (0.1 mM-0.05 mM) and peroxide (0.2 mM-0.8 mM)]. The best compromise between sensitivity and concentration was obtained using 1.1 mMp-iodophenol with 0.8 mMperoxide and 0.05 mM 1b. At the best level, 2500-fold enhancement in chemiluminescence intensity (compared to an identical solution containing no enhancer) was obtained using p-iodophenol with 7×10^-16 mol of enzyme.

HRP [3] = biological target: T1, HRP; experiment: Improvement of detection by phenol enhancers; type: biochemical, horseradish; conditions: 2.25 mM enhancer, 0.1 mM 1b, 0.8 mM H2O2, 0.5% Tween 20, 0.1M tris pH 8.5, 25° C., 1×10^-15 mol HRP, 30 min
Protocol: as §1
To 220 μL of a formulation containing 0.1 mM 1b, 2.25 mM enhancer, 0.8 mM H2 O2, 0.5% (w/w) Tween 20 and 1 mM EDTA in 0.1M tris buffer, pH 8.5 at 25° C. an aliquot containing 1×10^-15 mol of HRP was injected and the chemiluminescence at 30 min was measured.

[4] = benzoyl peroxide, aqueous solution; cited from earlier work
horseradish peroxidase = biological target: T2, horseradish peroxidase (Armoracia rusticana, UniProt P00433); experiment: Comparison of compounds 1a-e at pH 8.9, time course and total intensity of chemiluminescence; type: biochemical; conditions: 0.01 mM acridan, 0.1M phosphate pH 8.9, 6.2 mM H2O2, 2.25 mM p-iodophenol, 1×10^-13 mol HRP; for I max (RLU), peak light intensity: 0.5% Tween 20, 1 mM EDTA
T2 sequence (P00433 31-338 limits assumed): T1 sequence (P00433 31-338 limits assumed)
Protocol: as §1
A 200 μL volume of a formulation containing 0.01 mM acridan compound 1a-e in 0.1M phosphate buffer, pH 8.9, […] (6.2 mM) H2 O2, 2.25 mM p-iodophenol, 0.5% (w/w) Tween 20 and 1 mM EDTA was reacted with 1×10^-13 mol of horseradish peroxidase. […] Compared below are the peak light intensity (Imax) in relative light units (RLU), the time to maximum light intensity (tmax) and total light output.

Question: For `CCCCCCCCCCCCOS(=O)(=O)[O-].[Na+]` [SDS, sodium dodecyl sulfate], which “decrease of background luminescence from a solution of 1b (factor, compared to a similar solution lacking the surfactant)” value [1] is on record?
Answer: similarly lowers background luminescence

Question: Which results are given for `Oc1ccc(I)cc1` [p-iodophenol]?
Answer: enhancement in chemiluminescence intensity (compared to an identical solution containing no enhancer) (HRP [2]): 2500 fold; S/B (HRP [3]): 600

Question: With `c1ccc2c(c1)Cc1ccccc1N2` [acridan] as the compound, how does the “chemiluminescence efficiency (OCL)” value [4] read?
Answer: 3×10^-7

Question: For `CN1c2ccccc2C(C(=O)Oc2ccccc2)c2ccccc21` [Compound 1a, Phenyl 10-methylacridan-9-carboxylate], which “I max (RLU), peak light intensity” value (horseradish peroxidase) is on record?
Answer: 247 RLU

Question: And the “I total (RLU), total light output” value (horseradish peroxidase)?
Answer: ca. 6 × 10^5 RLU

Question: What about the “t max (min), time to maximum light intensity” value (shortened to “t max (min), time”) (horseradish peroxidase) of the same compound?
Answer: 9.6 min

Question: With `O=C(O)C=Cc1ccc(O)cc1` [p-hydroxycinnamic acid] as the compound, how does the S/B (HRP [3]) read?
Answer: 9

Question: For `Cc1ccc(S(=O)(=O)N(C(=O)C2c3ccccc3N(C)c3ccccc32)c2ccccc2)cc1` [Compound 1e], which “I max (RLU), peak light intensity” value (horseradish peroxidase) is on record?
Answer: 8160 RLU

Question: What about the “I total (RLU), total light output” value (horseradish peroxidase) of the same compound?
Answer: 1.5 × 10^6 RLU

Question: What about the “t max (min), time” value (horseradish peroxidase) of the same compound?
Answer: 1.4 min

Question: Which “decrease of background luminescence from a solution of 1b (factor, compared to a similar solution lacking the surfactant)” value [1] does the source give for Tween 20 here?
Answer: 65

Question: For `CN1c2ccccc2C(C(=O)Oc2ccc3cc(O)ccc3c2)c2ccccc21` [Compound 1d, 6'-Hydroxynaphthyl 10-methylacridan-9-carboxylate], which “I max (RLU), peak light intensity” value (horseradish peroxidase) is on record?
Answer: 992 RLU

Question: What about the “I total (RLU), total light output” value (horseradish peroxidase) of the same compound?
Answer: 7.4 × 10^5 RLU

Question: And the “t max (min), time” value (horseradish peroxidase)?
Answer: 1.8 min

Question: With `CN1c2ccccc2C(C(=O)Oc2cccc(O)c2)c2ccccc21` [Compound 1c, 3'-Hydroxyphenyl 10-methylacridan-9-carboxylate] as the compound, how does the “I max (RLU), peak light intensity” value (horseradish peroxidase) read?
Answer: 24 RLU

Question: What about the “I total (RLU), total light output” value (horseradish peroxidase) of the same compound?
Answer: 3.6 × 10^4 RLU

Question: What about the “t max (min), time” value (horseradish peroxidase) of the same compound?
Answer: 7.8 min

Question: With `Oc1ccc(-c2ccccc2)cc1` [p-phenylphenol] as the compound, how does the S/B (HRP [3]) read?
Answer: 200

Question: With `Oc1ccc2ccccc2c1` [Compound 2-naphthol, 2-naphthol] as the compound, how does the S/B (HRP [3]) read?
Answer: 138
